These results are taken from patent US7129269B2, “Compound” (Sterix Ltd., priority 1996, dated 2006).

Read-outs that look alike come from different tables or passages of the source.

For series [1], the target named is T1, oestrone sulphatase (Homo sapiens, UniProt P08842).
T1 construct: from tissue; host or cells: placenta (microsomes, 100,000 g)
T1 sequence (P08842 22-583): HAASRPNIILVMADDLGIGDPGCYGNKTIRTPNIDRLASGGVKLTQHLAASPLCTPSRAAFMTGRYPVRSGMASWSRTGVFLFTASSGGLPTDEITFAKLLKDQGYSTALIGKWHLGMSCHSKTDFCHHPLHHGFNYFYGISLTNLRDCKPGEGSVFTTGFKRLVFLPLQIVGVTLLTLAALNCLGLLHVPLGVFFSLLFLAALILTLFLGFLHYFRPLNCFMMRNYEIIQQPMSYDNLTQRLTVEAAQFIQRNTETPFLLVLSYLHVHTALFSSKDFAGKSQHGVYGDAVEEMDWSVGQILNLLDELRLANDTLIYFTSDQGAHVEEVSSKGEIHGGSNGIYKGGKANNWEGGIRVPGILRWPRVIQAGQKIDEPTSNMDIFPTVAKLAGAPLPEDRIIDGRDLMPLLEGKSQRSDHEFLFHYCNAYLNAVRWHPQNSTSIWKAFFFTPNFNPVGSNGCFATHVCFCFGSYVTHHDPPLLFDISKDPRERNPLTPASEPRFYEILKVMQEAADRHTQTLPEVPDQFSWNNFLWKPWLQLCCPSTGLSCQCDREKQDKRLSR
Nature of the series: Oestrone sulphatase inhibition in placental microsomes. Format: biochemical. The following applies: for % INHIBITION Sulphatase: placental microsomes.

The target of series [2] is T2, aromatase (Homo sapiens, UniProt P11511).
T2 sequence (P11511 1-503): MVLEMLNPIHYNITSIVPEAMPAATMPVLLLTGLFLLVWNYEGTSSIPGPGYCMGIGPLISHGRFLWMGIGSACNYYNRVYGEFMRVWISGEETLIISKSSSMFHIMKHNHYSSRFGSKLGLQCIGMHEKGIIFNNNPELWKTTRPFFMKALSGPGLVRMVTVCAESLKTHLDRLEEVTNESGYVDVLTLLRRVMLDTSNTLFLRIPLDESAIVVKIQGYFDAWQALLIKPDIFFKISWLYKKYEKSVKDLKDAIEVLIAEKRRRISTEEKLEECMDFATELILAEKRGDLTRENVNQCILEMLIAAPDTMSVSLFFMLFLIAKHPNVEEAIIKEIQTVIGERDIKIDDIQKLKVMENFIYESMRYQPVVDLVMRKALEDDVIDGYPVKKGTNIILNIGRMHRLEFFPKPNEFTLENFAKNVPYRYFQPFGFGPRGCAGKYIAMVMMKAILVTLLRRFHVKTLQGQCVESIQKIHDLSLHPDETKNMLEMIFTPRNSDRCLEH

For series [3], the target named is T3, oestrone sulphatase (E1-STS) (Homo sapiens, UniProt P08842).
T3 construct: endogenous in cells; host or cells: MCF-7 breast cancer cells
T3 sequence (P08842 22-583): T1 sequence (P08842 22-583)
Nature of the series: Oestrone sulphatase (E1-STS) inhibition in intact MCF-7 breast cancer cells. Format: cell-based.

Series [4] has as its target T2, aromatase. Description: Aromatase inhibition in placental microsomes, tritiated water release assay.
Series [5] concerns the target T4, oestrone sulphatase (Rattus norvegicus, UniProt P15589).
T4 construct: from tissue; host or cells: rat liver
T4 sequence (P15589 20-577): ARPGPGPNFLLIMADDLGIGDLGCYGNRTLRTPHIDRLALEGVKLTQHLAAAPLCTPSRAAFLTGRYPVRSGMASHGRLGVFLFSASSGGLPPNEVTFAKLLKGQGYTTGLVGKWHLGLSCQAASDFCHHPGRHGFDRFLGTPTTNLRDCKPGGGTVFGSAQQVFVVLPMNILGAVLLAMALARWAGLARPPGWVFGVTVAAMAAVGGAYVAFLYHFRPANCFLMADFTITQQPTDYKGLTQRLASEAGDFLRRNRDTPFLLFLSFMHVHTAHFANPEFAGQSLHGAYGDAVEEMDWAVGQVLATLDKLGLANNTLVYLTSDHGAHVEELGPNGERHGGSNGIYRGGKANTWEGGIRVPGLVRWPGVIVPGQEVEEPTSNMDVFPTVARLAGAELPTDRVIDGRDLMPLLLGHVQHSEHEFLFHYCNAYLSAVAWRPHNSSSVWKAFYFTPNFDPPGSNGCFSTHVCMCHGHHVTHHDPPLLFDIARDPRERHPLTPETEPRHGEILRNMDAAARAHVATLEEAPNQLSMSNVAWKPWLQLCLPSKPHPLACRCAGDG
Description: In vivo inhibition of oestrone sulphatase activity in rat liver. The note with it: 24 hours after single oral dose in propylene glycol, 10 mg/Kg. The protocol:
FIG. 11 presents in vivo inhibition of oestrone sulphatase activity in rat liver for two isoflavones according to the present invention. […] Compounds were administered as a single 10 mg/Kg dose. Oestrone sulphatase activity was assayed in tissue samples obtained 24 h after drug administration.

For `NS(=O)(=O)Oc1cc(O)c2c(=O)cc(-c3ccccc3)oc2c1` [Compound 3, 5-Hydroxyflavone 7-O-sulphamate], the “% INHIBITION Sulphatase” value at oestrone sulphatase [1] (1 μM) was 8%; on oestrone sulphatase [1] (10 μM) it was 21%. Further, at aromatase [2], the “% Inhibition of aromatase activity in placental microsomes at 10 μM” value is given as 85%. Further, the “% Inhibition of sulphatase activity in MCF-7 cells” value (shortened to “% Inhibition of sulphatase activity”) is recorded as 4.2 ± 0.9% in series [3] (1 μM) and 20.6 ± 1.2% in series [3] (10 μM).

As for `NS(=O)(=O)Oc1ccc(C2COc3cc(OS(N)(=O)=O)ccc3C2)cc1` (racemic) [Compound 22, (±) Isoflavane-7,4′-O,O-bisulphamate], the “inhibition of E1-STS activity in placental microsomes (in words)” value on oestrone sulphatase [1] (compared with 19) is recorded as “less potent”. Besides, in series [3], the “inhibition of E1-STS activity in MCF-7 cells (in words)” value is given as “less potent”. Further, the “% Inhibition of sulphatase activity” value in series [3] (0.1 μM), in series [3] (1 μM) and in series [3] (10 μM) was over 99% in each case. Also, the “% Inhibition of aromatase activity in placental microsomes at 10 μM” value at aromatase [4] was 13%.

Turning to `NS(=O)(=O)Oc1ccc(C2CC(=O)c3c(O)cc(O)cc3O2)cc1` (stereo not shown) [Compound 20, 5,7-Dihydroxyflavanone 4′-O-sulphamate], the “% INHIBITION Sulphatase” value at oestrone sulphatase [1] (10 μM, listed as 5,7-dehydroxy flavanone-4′-sulphamate) turned out to be 98%. The “% Inhibition of oestrone sulphatase in vivo” value at oestrone sulphatase [5] worked out at 44.2 ± 3.8%. The “% Inhibition of sulphatase activity” value was 30 ± 2.8% in series [3] (0.1 μM), 79 ± 1.2% in series [3] (1 μM) and over 99% in series [3] (10 μM).
